The results in this text go back to US6291657A (priority 1993, dated 2001).

For orientation: pIC50 means the IC50 on a negative log10 scale, so that one unit is a factor of ten.

pIC50: −log10 of the molar value.

In test [1] the test system is glycolipid and phospholipid species in HL-60 cells. Put plainly: 2D-TLC analysis of total HL-60 lipids labelled with [14C]-palmitic acid. It is filed as cell-based, human. The settings on record: 2D-TLC (FIG. 2). Here is the method: 2D-TLC separation was made of total HL-60 lipids labelled with [^14 C]-palmitic acid. Cells were treated with either 0.5 mM NB-DNJ or NB-DGJ or untreated (UT). Lipids were assigned as follows (untreated cells, lefthand panel, FIG. 2A): 1, gangliosides; 2, lysophospatidylcholine; 3, ceramide phosphorylcholine; 4, ceramide phosphorylethanolamine; 5, phospatidylcholine; 6, phosphatidylinositol; 7, phosphatidylethanolamine; 8, phosphatidylglycerol; 9, diglycosylceramide; 10, monoglycosylceramide; 11, cholesterol/fatty acids/neutral lipids; N and N* are unknowns; and 0 is the sample origin. Following NB-DNJ and NB-DGJ treatment (middle and righthand panels, FIGS. 2B and 2C, respectively) species 1 (gangliosides);9 (diglycosylceramide); 10 (monoglycosylceramide) and N* (unknown) were absent. The radiolabelled lipids were visualized by autoradiography.
HL-60 cells were cultured by conventional procedure as previously described by Platt et al., Eur. J. Biochem. 208, 187-193 (1992). HL-60 cells at 5×10^4 cells/ml were cultured in the presence or absence of imino sugars for 24 hr. For labelling, the two dimensional thin layer chromatography (2D-TLC) conventional method of Butters and Hughes was followed [In Vitro 17, 831-838 (1981)]. Briefly, [^14 C]-palmitic acid (56.8 mCi/mmol, ICN/Flow) was added as a sonicated preparation in foetal calf serum (FCS, Techgen, London, U.K., 0.5 μCi/ml) and the cells cultured for a further 3 days maintaining the imino sugars in the medium. The cells were harvested, washed three times with phosphate buffered saline (PBS), extracted in 1 ml chloroform:methanol (2:1 v/v) and separated by 1 dimensional TLC, loading equal counts (1D-TLC, chloroform:methanol:water (65:25:4)). For two dimensional separations the one dimensional separation was performed as described above, the plate dried overnight under vacuum and separated in the second dimension using a solvent of tetrahydrofuran: dimethoxymethane:methanol:water (10:6:4:1). Plates were air dried and exposed to Hyperfilm-MP high performance autoradiography film (Amersham).

Test [2] has as its target UDP-glucose:N-acylsphingosine glucosyltransferase. In words: Inhibition of UDP-glucose:N-acylsphingosine glucosyltransferase. In kind it is biochemical, rat brain, mouse macrophage (WEHI-3B). The settings on record: rat brain or mouse macrophage homogenates; read-out: IC50.
The next test relates to α-glucosidase I and II. In words: Inhibition of purified processing α-glucosidase I and II. It is filed as biochemical. The settings on record: for inhibition of processing α-glucosidases I and II / N-linked oligosaccharide processing: in words. Here is the method: Porcine liver α-glucosidase I and rat liver α-glucosidase II were purified to homogeneity and assayed by conventional procedure using a [^14 C]-glucose labelled Glc3 Man9 GlcNAc2 substrate as previously described by Karlsson et al., J. Biol. Chem. 268, 570-576 (1993).
Enzymes were assayed according to procedure described hereinbefore using
The data from FIG. 8 were […]

Turning to `CCCCN1C[C@H](O)[C@@H](O)[C@@H](O)[C@H]1CO` [NB-DGJ, N-butyl deoxygalactonojirimycin], the “gangliosides, unknown lipid (N*), mono and dihexaside species following treatment” value in test [1] (HL-60, 0.5 mM) is “absent”. Besides, the “depletion of glycolipid species” value in test [1] (HL-60, 500 μM) is recorded as “total depletion of glycolipid species”. In addition, the pIC50 is 4.22 in test [2]; 2.67 at α-glucosidase I and II (mixture of purified α-glucosidases I and II). Further, the “inhibition of processing α-glucosidases I and II / N-linked oligosaccharide processing” value with α-glucosidase I and II is recorded as “does not inhibit N-linked oligosaccharide processing”; in the test on α-glucosidase I and II (listed as N-butyl DGJ) it was “does not inhibit”.
